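GI50: concentration for 50% inhibition of growth. TGI: total growth inhibition.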
Legend:
Assay in all cases: inhibition of tumour cell growth, NCI panel, 384-well format
IGROV1 ovarian = tested on: IGROV1 ovarian
SF-539 CNS = tested on: SF-539 CNS
NCI-H23 lung = tested on: NCI-H23 lung
HCT-116 colon = tested on: HCT-116 colon
MDA-MB-231 breast = tested on: MDA-MB-231 breast
SK-MEL-2 melanoma = tested on: SK-MEL-2 melanoma
OVCAR-3 ovarian = tested on: OVCAR-3 ovarian
OVCAR-5 ovarian = tested on: OVCAR-5 ovarian
MOLT-4 leukemia = tested on: MOLT-4 leukemia
ACHN renal = tested on: ACHN renal
K-562 leukemia = tested on: K-562 leukemia
SF-268 CNS = tested on: SF-268 CNS
KM12 colon = tested on: KM12 colon
SR leukemia = tested on: SR leukemia
HOP-92 NSCLC = tested on: HOP-92 NSCLC
OVCAR-8 ovarian = tested on: OVCAR-8 ovarian
SK-MEL-5 melanoma = tested on: SK-MEL-5 melanoma
786-0 renal = tested on: 786-0 renal
RXF 393 renal = tested on: RXF 393 renal
SF-295 CNS = tested on: SF-295 CNS
SNB-19 CNS = tested on: SNB-19 CNS
MALME-3M melanoma = tested on: MALME-3M melanoma
OVCAR-4 ovarian = tested on: OVCAR-4 ovarian
T-47D breast = tested on: T-47D breast
A498 renal = tested on: A498 renal
HT29 colon = tested on: HT29 colon
BT-549 breast = tested on: BT-549 breast
MDA-MB-435 melanoma = tested on: MDA-MB-435 melanoma
SK-MEL-28 melanoma = tested on: SK-MEL-28 melanoma
HCT-15 colon = tested on: HCT-15 colon
SK-OV-3 ovarian = tested on: SK-OV-3 ovarian
UACC-62 melanoma = tested on: UACC-62 melanoma
HL-60(TB) leukemia = tested on: HL-60(TB) leukemia
TK-10 renal = tested on: TK-10 renal
HS 578T breast = tested on: HS 578T breast
UACC-257 melanoma = tested on: UACC-257 melanoma
UO-31 renal = tested on: UO-31 renal
A549 NSCLC = tested on: A549 NSCLC
RPMI-8226 leukemia = tested on: RPMI-8226 leukemia
HOP-62 NSCLC = tested on: HOP-62 NSCLC
M14 melanoma = tested on: M14 melanoma
CCRF-CEM leukemia = tested on: CCRF-CEM leukemia
PC-3 prostate = tested on: PC-3 prostate
DU-145 prostate = tested on: DU-145 prostate
NCI-H322M lung = tested on: NCI-H322M lung
MDA-MB-468 breast = tested on: MDA-MB-468 breast
HCC-2998 colon = tested on: HCC-2998 colon
NCI-H226 lung = tested on: NCI-H226 lung
U251 glioblastoma = tested on: U251 glioblastoma
LOX IMVI melanoma = tested on: LOX IMVI melanoma
SW-620 colon = tested on: SW-620 colon
NCI-H522 lung = tested on: NCI-H522 lung
CAKI-1 renal = tested on: CAKI-1 renal
SN12C renal = tested on: SN12C renal
NCI-H460 NSCLC = tested on: NCI-H460 NSCLC
SNB-75 CNS = tested on: SNB-75 CNS

For `COc1ccc(-c2c(Nc3ccccn3)nc3c(C4=CCCCC4)c(-c4ccccc4)[nH]n3c2=O)cc1`, the GI50 (IGROV1 ovarian) was 2450 nM, the TGI (IGROV1 ovarian) was over 100000 nM and the GI50 (SF-539 CNS) was 1460 nM. For the same compound, the TGI (SF-539 CNS) was over 100000 nM, the GI50 (NCI-H23 lung) was 1330 nM and the TGI (NCI-H23 lung) was over 100000 nM. For the same compound, the GI50 (HCT-116 colon) was 1280 nM, the TGI (HCT-116 colon) was 5720 nM and the GI50 (MDA-MB-231 breast) was 1240 nM. For the same compound, the TGI (MDA-MB-231 breast) was 6850 nM, the GI50 (SK-MEL-2 melanoma) was 2180 nM and the TGI (SK-MEL-2 melanoma) was 9100 nM. It also gave a GI50 (OVCAR-3 ovarian) of 1000 nM, a TGI (OVCAR-3 ovarian) of 3320 nM and a GI50 (OVCAR-5 ovarian) of 2320 nM. It also gave a TGI (OVCAR-5 ovarian) of over 100000 nM, a GI50 (MOLT-4 leukemia) of 189 nM and a TGI (MOLT-4 leukemia) of 431 nM. The GI50 (ACHN renal) was 1790 nM, the TGI (ACHN renal) was over 100000 nM and the GI50 (K-562 leukemia) was 928 nM. It also gave a TGI (K-562 leukemia) of over 100000 nM, a GI50 (SF-268 CNS) of 589 nM and a TGI (SF-268 CNS) of over 100000 nM. For the same compound, the GI50 (KM12 colon) was 2160 nM, the TGI (KM12 colon) was over 100000 nM and the GI50 (SR leukemia) was 222 nM. It also gave a TGI (SR leukemia) of 1090 nM, a GI50 (HOP-92 NSCLC) of 1940 nM and a TGI (HOP-92 NSCLC) of 74900 nM. For the same compound, the GI50 (OVCAR-8 ovarian) was 2110 nM, the TGI (OVCAR-8 ovarian) was over 100000 nM and the GI50 (SK-MEL-5 melanoma) was 835 nM. The TGI (SK-MEL-5 melanoma) was 2640 nM, the GI50 ([…]-0 renal) was 2410 nM and the TGI (786-0 renal) was over 100000 nM. For the same compound, the GI50 (RXF 393 renal) was 108 nM, the TGI (RXF 393 renal) was 2720 nM and the GI50 (SF-295 CNS) was 1120 nM. It also gave a TGI (SF-295 CNS) of over 100000 nM, a GI50 (SNB-19 CNS) of 2000 nM and a TGI (SNB-19 CNS) of over 100000 nM. It also gave a GI50 (MALME-3M melanoma) of 1290 nM, a TGI (MALME-3M melanoma) of over 100000 nM and a GI50 (OVCAR-4 ovarian) of 1590 nM. It also gave a TGI (OVCAR-4 ovarian) of over 100000 nM, a GI50 (T-47D breast) of 1060 nM and a TGI (T-47D breast) of over 100000 nM. It also gave a GI50 (A498 renal) of 309 nM, a TGI (A498 renal) of over 100000 nM and a GI50 (HT29 colon) of 4210 nM. It also gave a TGI (HT29 colon) of over 100000 nM, a GI50 (BT-549 breast) of 461 nM and a TGI (BT-549 breast) of over 100000 nM. The GI50 (MDA-MB-435 melanoma) was 3080 nM, the TGI (MDA-MB-435 melanoma) was over 100000 nM and the GI50 (SK-MEL-28 melanoma) was 3090 nM. It also gave a TGI (SK-MEL-28 melanoma) of over 100000 nM, a GI50 (HCT-15 colon) of 1360 nM and a TGI (HCT-15 colon) of over 100000 nM. It also gave a GI50 (SK-OV-3 ovarian) of 604 nM, a TGI (SK-OV-3 ovarian) of over 100000 nM and a GI50 (UACC-62 melanoma) of 890 nM. For the same compound, the TGI (UACC-62 melanoma) was over 100000 nM, the GI50 (HL-60(TB) leukemia) was 580 nM and the TGI (HL-60(TB) leukemia) was 1850 nM. It also gave a GI50 (TK-10 renal) of 1640 nM, a TGI (TK-10 renal) of over 100000 nM and a GI50 (HS 578T breast) of 1060 nM. For the same compound, the TGI (HS 578T breast) was 14500 nM, the GI50 (UACC-257 melanoma) was 1610 nM and the TGI (UACC-257 melanoma) was over 100000 nM. It also gave a GI50 (UO-31 renal) of 3360 nM, a TGI (UO-31 renal) of over 100000 nM and a GI50 (A549 NSCLC) of 1440 nM. It also gave a TGI (A549 NSCLC) of over 100000 nM, a GI50 (RPMI-8226 leukemia) of 288 nM and a TGI (RPMI-8226 leukemia) of 1880 nM. It also gave a GI50 (HOP-62 NSCLC) of 717 nM, a TGI (HOP-62 NSCLC) of 9610 nM and a GI50 (M14 melanoma) of 841 nM. The TGI (M14 melanoma) was over 100000 nM, the GI50 (CCRF-CEM leukemia) was 304 nM and the TGI (CCRF-CEM leukemia) was 1100 nM. The GI50 (PC-3 prostate) was 1580 nM, the TGI (PC-3 prostate) was over 100000 nM and the GI50 (DU-145 prostate) was 727 nM. For the same compound, the TGI (DU-145 prostate) was 9510 nM, the GI50 (NCI-H322M lung) was 1060 nM and the TGI (NCI-H322M lung) was over 100000 nM. It also gave a GI50 (MDA-MB-468 breast) of 967 nM, a TGI (MDA-MB-468 breast) of 2780 nM and a GI50 (HCC-2998 colon) of 2410 nM. The TGI (HCC-2998 colon) was over 100000 nM, the GI50 (NCI-H226 lung) was 2010 nM and the TGI (NCI-H226 lung) was over 100000 nM. For the same compound, the GI50 (U251 glioblastoma) was 1270 nM, the TGI (U251 glioblastoma) was over 100000 nM and the GI50 (LOX IMVI melanoma) was 989 nM. The TGI (LOX IMVI melanoma) was 8410 nM, the GI50 (SW-620 colon) was 3000 nM and the TGI (SW-620 colon) was over 100000 nM. It also gave a GI50 (NCI-H522 lung) of 1040 nM, a TGI (NCI-H522 lung) of 10900 nM and a GI50 (CAKI-1 renal) of 1380 nM. It also gave a TGI (CAKI-1 renal) of over 100000 nM, a GI50 (SN12C renal) of 1990 nM and a TGI (SN12C renal) of over 100000 nM. For the same compound, the GI50 (NCI-H460 NSCLC) was 353 nM, the TGI (NCI-H460 NSCLC) was 2760 nM and the GI50 (SNB-75 CNS) was 8110 nM. The TGI (SNB-75 CNS) was over 100000 nM.
